Consider 29 compounds from paper PMC4579641 (BMC Complementary and Alternative Medicine, 2015).

Data set [1] concerns Mycobacterium bovis AN5. Kind of data set: microbe, parasite or virus in culture. In kind it is cell-based. The note with it: for MIC: Mycobacterium tuberculosis variant bovis, AN5, 168 h, read-out: Antimycobacterial activity, M. bovis MIC; for Antimycobacterial activity, M. bovis MIC: AN5 strain, Alamar Blue, 7 days incubation, average and standard deviation of triplicate assays.

Data set [2] relates to Mycobacterium tuberculosis H37Rv. Kind of data set: Minimum Inhibitory Concentration by the Alamar Blue technique, M. tuberculosis. In kind it is cell-based. The note with it: for MIC: Mycobacterium tuberculosis, 168 h, read-out: Antimycobacterial activity, M. tuberculosis MIC. (In general: Resazurin is reduced to fluorescent resorufin, in cell work by metabolically active cells.)

Data set [3] can be described thus: Cytotoxic activity on macrophages, alamar blue. In kind it is cell-based, mouse. The note with it: mouse, J774A monocyte macrophage cell line; J774 macrophages, 24 h; average and standard deviation of three assays. The method, then:
(§1) The J774A mouse monocyte macrophage cell line was grown in RPMI medium (Sigma, R0883) supplemented with 10 % heat inactivated fetal bovine serum (FBS, Sigma-Aldrich), 1 % MEM-NEAA medium (Gibco, 11140–050) and a mixture of penicillin-streptomycin to 1 %. The cell culture was maintained at 37 °C with a partial atmosphere of 5 % CO2, the evaluations were carried out when 80–90 % confluence was reached.
(§2) In a 96 well plate 50,000 cells per well were deposited in a final volume of 100 μL, and incubated for 24 h at 37 °C in partial CO2 atmosphere to promote cell adhesion for an approximate 80 % confluence. Chemical compounds to be analyzed were diluted in DMSO; cytotoxic activity was evaluated by adding twofold serial dilutions of the compound to be analyzed, starting at a 1600 μg/mL concentration; the plates were further incubated (24 h). For cytotoxic evaluation, alamar blue (Sigma, R7017) solution was added (10 % v/v) and after 3 h, results were evaluated by determination of the change in color using a fluorimeter (590 nm). For negative control, cells were incubated with 500 μg/mL concentration of DMSO (Sigma, 472301), which was the highest concentration. Cytotoxic concentration (CC50) was determined using probit non-linear regression.

Data set [4] has as its system M. tuberculosis. Further details: method as in PMID 17924309. The note with it: cited from earlier work.
The subject of data set [5] is J774A mouse monocyte macrophage cell line. Kind of data set: Cytotoxic activity on macrophages, alamar blue. The note with it: J774A CC50 versus mycobacterial MIC. In kind it is cell-based. The method, then:
as §1, §2

[6] abbreviates: H37Rv strain, Alamar Blue, 7 days incubation, average and standard deviation of triplicate assays.

Converted amounts (≈) assume the structure as drawn. Read-outs that look alike come from different tables or passages of the source.

In the case of `C=CCc1ccc(O)c(OC)c1` [Eugenol], the MIC in data set [1] came to 20.8 ± 7.22 µg/mL (≈ 127 µM); in data set [2] (setting [6]) it was 25 µg/mL (≈ 152 µM).
Turning to `CC1CCC(C(C)C)C(O)C1` (centres unmarked) [Menthol], the MIC in data set [1] was 83.3 ± 14.4 µg/mL (≈ 533 µM). Also, the MIC in data set [2] (setting [6]) turned out to be 41.7 ± 14.4 µg/mL (≈ 267 µM). For the same compound, in data set [3], the CC50 at 24 h turned out to be 1450 ± 180 µg/mL (≈ 9280 µM) and the CC90 at 24 h was determined as 2600 ± 304 µg/mL (≈ 16600 µM).
Turning to `Cc1ccc(C(C)C)cc1` [p-Cymene], the MIC in data set [1] was found to be 91.7 ± 14.4 µg/mL (≈ 683 µM). Moreover, in data set [2] (setting [6]), the MIC was determined as 91.7 ± 14.4 µg/mL (≈ 683 µM). Further, in data set [3], the CC50 at 24 h was found to be 1170 ± 44.3 µg/mL (≈ 8690 µM) and the CC90 at 24 h stood at 2200 ± 86.6 µg/mL (≈ 16400 µM).
On to `CC1=CC=C(C(C)C)CC1` [α-Terpinene], for which the MIC is 20.8 ± 7.22 µg/mL (≈ 153 µM) in data set [1] and 10.4 ± 3.61 µg/mL (≈ 76.4 µM) in data set [2] (setting [6]).
As for `CC(C)=CCCC(C)CCO` (stereo not drawn) [β-Citronellol], the MIC in data set [1] came to 10.4 ± 3.61 µg/mL (≈ 66.6 µM). In addition, in data set [2] (setting [6]), the “Antimycobacterial activity, M. tuberculosis MIC” value was 6.25 ± 0.00^FG μg/mL and the MIC was determined as 6.25 µg/mL (≈ 40 µM).
For the compound `C=CCc1ccc(OC)cc1` [Estragole], the MIC in data set [1] came out at 25 µg/mL (≈ 169 µM); in data set [2] (setting [6]), 20.8 ± 7.22 µg/mL (≈ 141 µM).
As to `NNC(=O)c1ccncc1` [Isoniazid, reference compound], the MIC is 0.16 ± 0.3 µg/mL (≈ 1.17 µM) in data set [1] and 0.26 ± 0.01 µg/mL (≈ 1.9 µM) in data set [2] (H37RV).
For `CC12CCC(CC1=O)C2(C)C` (centres unmarked) [Camphor], the MIC in data set [1] came to 50 µg/mL (≈ 328 µM); in data set [2] (setting [6]), 41.7 ± 14.4 µg/mL (≈ 274 µM).
Consider `CC1=CCC(=C(C)C)CC1` [Terpinolene], for which the values for the MIC in data set [1] and in data set [2] (setting [6]) were 33.3 ± 14.4 µg/mL (≈ 245 µM) and 8.33 ± 3.61 µg/mL (≈ 61.1 µM), respectively.
In the case of `CC(=O)OC/C=C(\C)CC/C=C(\C)CC/C=C(\C)CCC=C(C)C` [geranylgeranyl acetate], the “MIC against M. tuberculosis” value in data set [4] was 3.13 µg/mL.
With `C=CC(C)(O)CCC=C(C)C` (centres unmarked) [Linalool], the MIC in data set [1] was determined as 41.7 ± 14.4 µg/mL (≈ 270 µM); in data set [2] (setting [6]) it was 33.3 ± 14.4 µg/mL (≈ 216 µM).
As for `CC(C)=CCC/C(C)=C/CC/C(C)=C/CC/C(C)=C/CO` [Geranylgeraniol], the “MIC against M. tuberculosis” value in data set [4] is 1.56 µg/mL (≈ 5.37 µM).
On to `C=C(C)[C@H]1CC=C(C)CC1` [(+) Limonene], for which the MIC came out at 41.7 ± 14.4 µg/mL (≈ 306 µM) in data set [1] and 25 µg/mL (≈ 184 µM) in data set [2] (setting [6]).
With `CC12CCC(CC1)C(C)(C)O2` [Eucalyptol], the MIC in data set [1] and in data set [2] (setting [6]) was 41.7 ± 14.4 µg/mL (≈ 270 µM) each time.
For the compound `C/C=C/c1ccc(OC)cc1` [t-Anethole], the MIC was 58.3 ± 14.4 µg/mL (≈ 394 µM) in data set [1] and 20.8 ± 7.22 µg/mL (≈ 141 µM) in data set [2] (setting [6]).
Turning to `O=C/C=C/c1ccccc1` [Cinnamaldehyde], in data set [1], the “Antimycobacterial activity, M. bovis MIC” value is recorded as 12.50 ± 0.00^DE μg/mL and the MIC turned out to be 12.5 µg/mL (≈ 94.6 µM). Besides, in data set [2] (setting [6]), the “Antimycobacterial activity, M. tuberculosis MIC” value is recorded as 3.12 ± 0.00^EFG μg/mL and the MIC is 3.12 µg/mL (≈ 23.6 µM).
In the case of `C=C1CC/C=C(\C)CC[C@@H]2[C@@H]1CC2(C)C` [β-Caryophyllene], the MIC in data set [1] and in data set [2] (setting [6]) was 100 µg/mL (≈ 489 µM) in each case.
On to `COc1ccc(C=O)cc1` [p-Anisaldehyde], for which the MIC in data set [1] was determined as 10.4 ± 3.61 µg/mL (≈ 76.5 µM); in data set [2] (setting [6]) it was 4.16 ± 1.81 µg/mL (≈ 30.6 µM).
For `CC(C)c1ccc(C=O)cc1` [Cuminaldehyde], in that order: 20.8 ± 7.22 µg/mL (≈ 141 µM) and 10.4 ± 3.61 µg/mL (≈ 70.2 µM).
For `CC1=CCC2C(C1)C2(C)C` (centres unmarked) [3-Carene], the MIC amounted to 33.3 ± 14.4 µg/mL (≈ 245 µM) in data set [1] and 16.7 ± 7.22 µg/mL (≈ 122 µM) in data set [2] (setting [6]).
With `C=C1CCC2CC1C2(C)C` (stereo not drawn) [β-pinene], the MIC in data set [1] was 41.7 ± 14.4 µg/mL (≈ 306 µM); in data set [2] (setting [6]), 10.4 ± 3.61 µg/mL (≈ 76.4 µM).
Take `C=C(C)[C@@H]1CC=C(C)C(=O)C1` [(+) Carvone]: the MIC in data set [1] was determined as 41.3 ± 15 µg/mL (≈ 275 µM); in data set [2] (setting [6]), 20.8 ± 7.22 µg/mL (≈ 139 µM).
As to `Cc1ccc(C(C)C)cc1O` [Carvacrol], in data set [1], the “Antimycobacterial activity, M. bovis MIC” value was 5.20 ± 1.81^DE μg/mL and the MIC was 5.2 µg/mL (≈ 34.6 µM). Besides, in data set [2] (setting [6]), the “Antimycobacterial activity, M. tuberculosis MIC” value was 2.02 ± 0.88^FG μg/mL and the MIC was found to be 2.02 µg/mL (≈ 13.4 µM). Also, in data set [3], the CC50 at 24 h was 900 ± 86.6 µg/mL (≈ 5990 µM) and the CC90 at 24 h was 1950 ± 107 µg/mL (≈ 13000 µM). Moreover, the “CC50 concentration higher than the concentration needed for mycobacterial elimination” value in data set [5] is given as “approximately 500 fold”.
As to `C=C1CCC2(C(C)C)CC12` (centres unmarked) [Sabinene], the MIC in data set [1] stood at 25 µg/mL (≈ 184 µM); in data set [2] (setting [6]), 33.3 ± 14.4 µg/mL (≈ 245 µM).
Regarding `Cc1ccc(C(C)C)c(O)c1` [Thymol], in data set [1], the “Antimycobacterial activity, M. bovis MIC” value is listed as 2.02 ± 0.88^E μg/mL and the MIC turned out to be 2.02 µg/mL (≈ 13.4 µM). In data set [2] (setting [6]), the “Antimycobacterial activity, M. tuberculosis MIC” value is listed as 0.78 ± 0.01^G μg/mL and the MIC amounted to 0.78 µg/mL (≈ 5.19 µM). In data set [3], this compound registered a CC50 at 24 h of 483 ± 28.9 µg/mL (≈ 3220 µM) and a CC90 at 24 h of 1130 ± 115 µg/mL (≈ 7540 µM). For the same compound, the “CC50 concentration higher than the concentration needed for mycobacterial elimination” value in data set [5] is given as “approximately 500 fold”.
In the case of `CC(C)=CCC/C(C)=C/CO` [Geraniol], in data set [1], the MIC came out at 12.5 µg/mL (≈ 81 µM). In addition, in data set [2] (setting [6]), the “Antimycobacterial activity, M. tuberculosis MIC” value was 12.50 ± 0.00^EFG μg/mL and the MIC amounted to 12.5 µg/mL (≈ 81 µM).
In the case of `C=CC(=C)CCC=C(C)C` [Myrcene], the MIC in data set [1] is 33.3 ± 14.4 µg/mL (≈ 245 µM); in data set [2] (setting [6]), 25 µg/mL (≈ 184 µM). Moreover, the “Antimycobacterial activity, M. tuberculosis MIC” value in data set [2] (setting [6]) is on record as 25.00 ± 0.00^CDEF μg/mL.
In the case of `O=C(O)/C=C/c1ccccc1` [Cinnamic Acid], in data set [1], the “Antimycobacterial activity, M. bovis MIC” value is given as 7.29 ± 4.73^DE μg/mL and the MIC was determined as 7.29 µg/mL (≈ 49.2 µM). Also, in data set [2] (setting [6]), the “Antimycobacterial activity, M. tuberculosis MIC” value is recorded as 8.16 ± 3.32^FG μg/mL and the MIC came out at 8.16 µg/mL (≈ 55.1 µM).
For `CO[C@H]1/C=C/O[C@@]2(C)Oc3c(C)c(O)c4c(O)c(c(/C=N/N5CCN(C)CC5)c(O)c4c3C2=O)NC(=O)/C(C)=C\C=C\[C@H](C)[C@H](O)[C@@H](C)[C@@H](O)[C@@H](C)[C@H](OC(C)=O)[C@@H]1C` [Rifampicin, reference compound], the MIC in data set [1] came out at 0.5 ± 0.01 µg/mL (≈ 0.608 µM); in data set [2] (setting [6]) it was 0.6 ± 0.14 µg/mL (≈ 0.729 µM).

A word on the CC50: it is the concentration that lowers cell viability or growth by half. The low end stands for greater toxicity to the cells, the high end for lower toxicity to the cells.
